Reference: patent US20140364454A1, “METAL-CHELATING COMPOUNDS HAVING AT LEAST ONE POLYAMINO CHAIN” (UNIVERSITE DE RENNES I, priority 2011, published 2014)
Read-outs that look alike come from different tables or passages of the source.

What was measured:
[1] = tested on: HepG2 cells; experiment: Anti-proliferative effect on HepG2 cells (nuclei count or SDH activity); type: cell-based, human; details: 72 h; for IC50: HepG2, absence of exogenous iron, read-out: IC50 associated with the cytostatic effect; for % of HepG2 cells concerned by the anti-proliferative effect: absence of exogenous iron
From the text: The majority of the Quilamines, like ICL670, show biphase dose-effect curves in the absence of exogenous iron, with an anti-proliferative constituent for concentration values of 1 to 10 micromoles per liter and a cytotoxic constituent associated with a release of LDH for concentration values of over 10 micromoles per liter. The percentage of HepG2 cells concerned by the anti-proliferative effect and the values of IC50 associated with this cytostatic effect in the absence of exogenous iron were listed in the table 4 below.
The implication of PTS in the cytostatic and cytotoxic action of Quilamines was analyzed in proliferating HepG2 hepatocyte tumor cells after activation of PTS or competitive inhibition of PTS by spermidine, a polyamine naturally present in the organism and most efficaciously captured by the PTS. The conditions of treatment by Quilamines are identical to those described in paragraph III-1.
Inhibiting ornithine decarboxylase (ODC), the key enzyme in the biosynthesis of polyamines, causes a depletion of intra-cell polyamines and an activation of PTS which enables the deficiency to be met. This activation of PTS is done by means of the ODC inhibitor, alpha-difluoromethyl ornithine (DFMO).
The competitive inhibition of PTS by spermidine is prompted by the co-treatment of the cells by the Quilamines in the presence of spermidine, in a concentration of 50 micromoles per liter.

[2] = Calcein test: shift of iron(III) complexated with calcein; type: physicochemical; details: pH 7.4
Method: The Quilamines HQ1-34, HQ1-344, HQ1-343, HQ1-33, HQ1-333, HQ1-44, HQ1-43, HQ1-444, HQ1-443 according to the invention were synthesized and tested. For each Quilamine, its capacity to shift iron (III) complexated with calcein was tested. Calcein is a fluorescent molecule which has a pFe3+ value of 20.3 with pH 7.4 close to the value measured for ligands of low molecular weight present in human or animal cells and complexating the labile iron pool, such as citrate which has a pFe^3+ value of 19.3 with pH of 7.4 (LIP). The fluorescence of calcein is detected on a microplate, in a concentration of 0.1 micromole per liter, in solution in a HEPES buffer (4-(2-hydroxyethyl)-1-piperazine ethane sulfonic acid) with pH 7.4, in a Fusion (Packard) type a microplate fluorescence reader, under excitation at 450 nanometers and analysis of the fluorescence emission at 515 nanometers. The fluorescence of calcein is extinguished in the presence of iron(III) in the form of hydrochloride (chloride) with a concentration of 1 micromole per liter. The addition of Quilamine in different concentrations ranging from 0.01 to 40 micromoles per liter prompts the shifting of iron(III) complexated with calcein towards Quilamine, resulting in a restoration of the fluorescence of the calcein. The dose-effect curves expressing the percentage of restoration of fluorescence of calcein (relative to the fluorescence of the free molecule in the absence of iron), for each Quilamine concentration, makes it possible to deduce the Quilamine concentration prompting the 50% shift of Fe(III) from calcein and the restoration of its associated fluorescence (CE50). These concentration values CE50 are inversely proportional to the chelating capacity of the chelators and the aptitude to mobilize iron from the LIP of the organism.
Comparatively, measurements were made, under the same conditions, of the efficacy in shifting iron(III) complexated with calcein of the two prior-art chelators, 8-hydroxyquinoline and O-trensox, the latter being currently considered to be the chelator having the greatest affinity for iron.

[3] = tested on: Caco-2 cells; experiment: Cell viability of proliferating Caco-2 cells (number of nuclei); type: cell-based, human; details: for IC50: no exogenous iron; for Constituent 1 (1-10 μM) % cell / Constituent 2 (10-100 μM) % cell: Caco-2 J4, no exogenous iron
Method: (§1) The action of Quilamines on the cell viability was analyzed on enterocyte cells of the Caco-2 tumor cell line derived from human colon carcinoma and compared with the action of ICL670 in the presence or absence of exogenous iron, after activation (DFMO) or competitive inhibition by spermidine, of the PTS. The operating conditions used are identical to those used for CHO/CHO-MG and HepG2 cells.
The results for the measurement of the anti-proliferative effect of Quilamines, and of ICL670 on the proliferating cells (cytostatic constituent) when there is no exogenous iron have been listed in the table 4 below.

[4] = tested on: Caco-2 cells; experiment: LDH release of Caco-2 cells; type: cell-based, human; details: for % LDH/control 10 μM: Caco-2 J4, 10 μM; for % LDH/control 100 μM: Caco-2 J4, 100 μM
Method: as §1
As in the case of the other cell lines in proliferative phase presented here above, the dose-effect curves of the action of the Quilamines on the number of viable cells (number of nuclei) are biphase curves with a cytostatic constituent for concentration values of below 30 micromoles per liter and a cytotoxic constituent with release of LDH for concentration values above 30 micromoles per liter. Only this second cytotoxic constituent is observed when the cells of the Caco-2 cell line are treated after confluence (stopping of the proliferation).

[5] = tested on: mutant cell line CHO-MG without PTS; experiment: Anti-proliferative effect on CHO-MG cells without PTS, counting of cell nuclei; type: cell-based, hamster; details: for IC50: 72 h treatment; for Ratio IC50 (CHO-MG/CHO): selectivity of recognition by the PTS
From the text: The IC50 inhibitor concentration corresponding to the concentration in Quilamines enables the inhibition at 50% of the cell proliferation was deduced from the dose-effect curves of numeration of the nuclei of the living cells on the CHO and CHO-MG cell lines. These dose-effect curves are sometimes bi-phase curves as in the case of Quilamine HQ1-44 which has an anti-proliferative constituent (without concomitant release of LDH in supernatant) in the range of concentrations of 0.4 to 3 micromoles per liter and a second cytotoxic constituent accompanied by membrane toxicity expressed by the release of LDH for concentrations of over […]. The lower the value of IC50, the greater the efficiency of the anti-proliferative effect of the tested chelators.
Furthermore, the ratio of the IC50 inhibitor concentrations found for the CHO-MG and the CHO cell lines (Ratio IC50 (CHO-MG/CHO)) was computed for several Quilamines according to the invention. This ratio makes it possible to estimate the selectivity of recognition of the different chelators by the PTS: the higher the ratio, the more clearly is the chelator recognized by the PTS. When this ratio is close to 1, the tested chelator is not recognized or is little recognized by the PTS.

[6] = tested on: wild cell line (CHO) of hamster ovarian cells; experiment: Anti-proliferative effect on CHO cells, counting of cell nuclei (Hoechst 33342); type: cell-based; details: 72 h treatment, no exogenous iron; read-out: IC50 CHO
Method: The in vitro efficacy of different Quilamines was tested on a wild cell line (CHO) of hamster ovarian cells having PTS and a mutant cell line CHO-MG without PTS. The two cell types CHO and CHO-MG were treated, 24 hours after being seeded in 96-well microplates, by concentrations of different Quilamines ranging from 0.1 to 400 micromoles per liter. The cytostatic (anti-proliferative) effects and cytotoxic effects of Quilamine after 72 hours' treatment of the cells were assessed respectively by counting cell nuclei after DNA marking by the Hoechst 33342 fluorescent intercalant dye and by analysis of membrane damage detected by the dosing of the lactate dehydrogenase activity (LHD) in the supernatants.
The IC50 inhibitor concentration corresponding to the concentration in Quilamines enables the inhibition at 50% of the cell proliferation was deduced from the dose-effect curves of numeration of the nuclei of the living cells on the CHO and CHO-MG cell lines. […] The lower the value of IC50, the greater the efficiency of the anti-proliferative effect of the tested chelators.
A comparison was made of the cytostatic or anti-proliferative action and the cytotoxic action for 72 h of treatment by Quilamine HQ1-44 and 8-hydroxyquinoline and ICL670, on the CHO cell lines in the presence and without the presence of exogenous iron, in the form of Fe(III) citrate in a concentration of 20 micromoles per liter. The results obtained are shown in FIG. 4, FIG. 4A relating to the results on cell viability and FIG. 4B relating to the results on cell toxicity.

[7] = Potentiometry: stability constants and pFe3+ of the iron complex; type: physicochemical; details: pH 7.4
Method: The complexation affinity of Quilamine with the metal ion in the organism reflects the chelating capacity or chelating power of Quilamine. This affinity can be assessed by measuring the value of pW corresponding to −log of the concentration in free metal ion W, i.e. non-complexated by the Quilamine for a ratio of respective concentrations of Quilamine (10 micromoles per liter) and metal ion (1 micromole per liter) equal to 10, at 25° C. and pH 7.4. The higher the value of pW, the greater the affinity of Quilamine with metal ion. The affinity of Quilamine with iron in its ferric form (Fe(III)) and its ferrous form (Fe(II)) is measured respectively by pFe^3+ and pFe^2+ at physiological pH (pH=7.4), at 25° C.
Potentiometry measurements were made in thermostated titration cells at 25±0.1° C., using a Metrohm 702 SM Titrino titrator connected to a Metrohm 6.0233.100. The ligand solution is prepared in a concentration of ˜1.5×10^−3 moles per liter, the solution of Fe^3+ is made from FeCl3 and titrated by complexation with a standard solution of EDTA (ethylenediaminetetracetic acid). The sample for the measurement contained approximately 0.03 millimoles per liter of ligand in a volume of 30 ml where the ionic strength is maintained at 0.1 mole per liter in using KNO3 as a support electrolyte. During the titrations, Fe^3+ is added to 0.45 or 0.9 equivalents of ligand. Each titration consists of 150-200 equilibrium points with pH varying from 2.0 to 11.5, and is repeated at least twice. The thermodynamic constants are computed with the software […] and the speciation diagram of the species is done by the Hyss program.

[8] = Caco-2 J4, cytostatic constituent, read-out: Constituent 1 (1-10 μM) IC50
[9] = Caco-2 J4, cytotoxic constituent, read-out: Constituent 2 (10-100 μM) IC50

Row | Structure (SMILES) | IC50 [1] | chelating capacity of HQ1-3 type compared with HQ1-4 type Quilamines [2] | IC50 [3, 8] | % LDH/control 10 μM [4] | % LDH/control 100 μM [4] | IC50 ([1]; Homo sapiens) | IC50 ([3]; Homo sapiens, Caco-2 J4, cytostatic constituent, read-out: Constituent 1 (1-10 μM) IC50) | pFe3+ [7] | % of HepG2 cells concerned by the anti-proliferative effect [1] | IC50 [3, 9] | Constituent 1 (1-10 μM) % cell [3] | Constituent 2 (10-100 μM) % cell [3] | IC50 ([3]; Homo sapiens, Caco-2 J4, cytotoxic constituent, read-out: Constituent 2 (10-100 μM) IC50) | IC50 [5] | Ratio IC50 (CHO-MG/CHO) [5] | IC50 [6]
1 | NCCCCNCCCNCc1ccc2cccc(O)c2n1 [HQ1-34] | 1.75 µM | better chelating capacity | 1 µM | 100% | 229% |  |  |  | 5% | 45 µM | 20% | 80% |  |  |  | 
2 | NCCCCNCCCCNCCCNCc1ccc2cccc(O)c2n1 [HQ1-344] |  | better chelating capacity |  | 95% | 120% | 1.75 µM | 3 µM |  | 10% |  | 22% | 78% | 75 µM |  |  | 
3 | NCCCCNCCCCNCCCCNCc1ccc2cccc(O)c2n1 [HQ1-444] | 4.75 µM |  | 2 µM | 99% | 118% |  |  |  | 10% | 75 µM | 60% | 40% |  | 240 µM | 38 | 6.3 µM
4 | NCCCNCCCCNCc1ccc2cccc(O)c2n1 [HQ1-43] | 1.75 µM |  | 1 µM | 93% | 240% |  |  |  | 10% | 30 µM | 7% | 93% |  |  |  | 
5 | NCCCNCCCCNCCCNCc1ccc2cccc(O)c2n1 [HQ1-343] | 2.15 µM | better chelating capacity | 2 µM | 89% | 255% |  |  |  | 12.5% | 40 µM | 30% | 70% |  |  |  | 
6 | O=C(NCCN(CCNC(=O)c1cc(S(=O)(=O)O)c2cccnc2c1O)CCNC(=O)c1cc(S(=O)(=O)O)c2cccnc2c1O)c1cc(S(=O)(=O)O)c2cccnc2c1O [o-Trensox, reference compound] |  |  |  |  |  |  |  | 29.5 |  |  |  |  |  |  |  | 

Continued, in another order:

Row | IC50 [1] | chelating capacity of HQ1-3 type compared with HQ1-4 type Quilamines [2] | IC50 [3, 8] | % LDH/control 10 μM [4] | % LDH/control 100 μM [4] | IC50 ([1]; Homo sapiens) | IC50 ([3]; Homo sapiens, Caco-2 J4, cytostatic constituent, read-out: Constituent 1 (1-10 μM) IC50) | pFe3+ [7] | Structure (SMILES) | % of HepG2 cells concerned by the anti-proliferative effect [1] | IC50 [3, 9] | Constituent 1 (1-10 μM) % cell [3] | Constituent 2 (10-100 μM) % cell [3] | IC50 ([3]; Homo sapiens, Caco-2 J4, cytotoxic constituent, read-out: Constituent 2 (10-100 μM) IC50) | IC50 [5] | Ratio IC50 (CHO-MG/CHO) [5] | IC50 [6]
7 | 1 µM | better chelating capacity | 3 µM | 112% | 169% |  |  |  | NCCCNCCCNCCCNCc1ccc2cccc(O)c2n1 [HQ1-333] | 12.5% | 60 µM | 20% | 80% |  | 277 µM | 18 | 15.1 µM
8 | 2.25 µM |  | 1 µM | 88% | 189% |  |  |  | NCCCNCCCCNCCCCNCc1ccc2cccc(O)c2n1 [HQ1-443] | 17.5% | 35 µM | 5% | 95% |  | 258 µM | 13 | 20.2 µM
9 | 1.5 µM | better chelating capacity | 0.8 µM | 118% | 261% |  |  |  | NCCCNCCCNCc1ccc2cccc(O)c2n1 [HQ1-33] | 10% | 37 µM | 40% | 60% |  | 118 µM | 21 | 5.7 µM
